One data set has as its system HeLa S-3 cells. In words: HeLa GI50 determination (SRB growth inhibition). Type of data set: cell-based, human. The method, boiled down:
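Cells plated at 2×10^4/well; day-0 plate TCA-fixed, test compounds added at 10-fold dilutions for 2 days. SRB staining, absorbance at 490 nm; GI = 100×(T−T0)/(C−T0), GI50 from growth inhibition vs. concentration plots.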

The subject of a further data set is MCF-7 cells. In words: MCF-7 GI50 determination (crystal violet growth inhibition). Type of data set: cell-based, human. In a few lines:
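MCF-7 cells seeded at 2×10^4 cells/well, grown 24 h drug-free, then exposed to 10-fold compound dilutions for 4 days. Glutaraldehyde-fixed cells stained with crystal violet, absorbance read at 570 nm; GI=100×(T/T0) against day-0 control OD, GI50 from growth inhibition versus concentration plots.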

[1] abbreviates: Homo sapiens, HeLa S3, 48 h, read-out: HeLa Cells GI50 (nM).
The mark [2] stands for this setting: Homo sapiens, MCF7, 96 h, read-out: MCF-7 Cells GI50 (nM).

Where two headings read alike, the source gives them in different places.

The text below walks through data of patent US7745619B2, “Vinca derivatives” (priority 2003, dated 2010).

The term GI50 denotes the concentration giving 50% growth inhibition. As a reminder, the melting point is the temperature, or range, at which the solid turns liquid.

Molecule `CC[C@]1(O)C[C@H]2CN(CCc3c([nH]c4ccc(SCc5ccccc5Cl)cc34)[C@@](C(=O)OC)(c3cc4c(cc3OC)N(C=O)[C@H]3[C@@](O)(C(=O)OC)[C@H](OC(C)=O)[C@]5(CC)C=CCN6CC[C@]43[C@@H]65)C2)C1` [Example 37, 12′-(2-chlorobenzylsulfanyl)vinblastine] yielded a melting point of 168 to 170 °C. Further, in the data set with HeLa S-3 cells (setting [1]), the GI50 was determined as 100 nM. Further, the GI50 in the data set with MCF-7 cells (setting [2]) came to 200 nM.

Take `CC[C@]1(O)C[C@H]2CN(CCc3c([nH]c4cc(I)c(C)cc34)[C@@](C(=O)OC)(c3cc4c(cc3OC)N(C=O)[C@H]3[C@@](O)(C(=O)OC)[C@H](OC(C)=O)[C@]5(CC)C=CCN6CC[C@]43[C@@H]65)C2)C1` [Example 92, 13′-iodo-12′-methyl vincristine]: the GI50 with HeLa S-3 cells (setting [1]) and in the data set with MCF-7 cells (setting [2]) was 30 nM each time.

On to `CC[C@]1(O)C[C@H]2CN(CCc3c([nH]c4cc(C)c(C)cc34)[C@@](C(=O)OC)(c3cc4c(cc3OC)N(C=O)[C@H]3[C@@](O)(C(=O)OC)[C@H](OC(C)=O)[C@]5(CC)C=CCN6CC[C@]43[C@@H]65)C2)C1` [Example 93, 12′,13′-dimethyl vincristine], for which the figures for the GI50 in the data set on HeLa S-3 cells (setting [1]) and in the data set on MCF-7 cells (setting [2]) were 20 nM and 30 nM, respectively.

As to `CCc1cc2[nH]c3c(c2cc1C)CCN1C[C@H](C[C@@](O)(CC)C1)C[C@]3(C(=O)OC)c1cc2c(cc1OC)N(C=O)[C@H]1[C@@](O)(C(=O)OC)[C@H](OC(C)=O)[C@]3(CC)C=CCN4CC[C@]21[C@@H]43` [Example 94, 13′-ethyl-12′-methyl vincristine], the GI50 stood at 30 nM in the data set on HeLa S-3 cells (setting [1]) and 50 nM in the data set on MCF-7 cells (setting [2]).

For `CCc1cc2[nH]c3c(c2cc1CC)CCN1C[C@H](C[C@@](O)(CC)C1)C[C@]3(C(=O)OC)c1cc2c(cc1OC)N(C=O)[C@H]1[C@@](O)(C(=O)OC)[C@H](OC(C)=O)[C@]3(CC)C=CCN4CC[C@]21[C@@H]43` [Example 95, 12′,13′-diethylvincristine], the results for the GI50 in the data set with HeLa S-3 cells (setting [1]) and in the data set on MCF-7 cells (setting [2]) were 20 nM and 30 nM, respectively.

On to `CCC1=C[C@H]2CN(CCc3c([nH]c4ccc(I)cc34)[C@@](C(=O)OC)(c3cc4c(cc3OC)N(C)[C@H]3[C@@](O)(C(=O)OC)[C@H](OC(C)=O)[C@]5(CC)C=CCN6CC[C@]43[C@@H]65)C2)C1` [Example 98, 12′-iodoanhydro vinblastine], for which the GI50 was determined as 50 nM with HeLa S-3 cells (setting [1]) and 305 nM in the data set on MCF-7 cells (setting [2]).

With `CCC1=C[C@H]2CN(CCc3c([nH]c4ccc(Br)cc34)[C@@](C(=O)OC)(c3cc4c(cc3OC)N(C=O)[C@H]3[C@@](O)(C(=O)OC)[C@H](OC(C)=O)[C@]5(CC)C=CCN6CC[C@]43[C@@H]65)C2)C1` [Example 99, 12′-bromoanhydro vincristine], the concentration for 50% growth inhibition (GI50) was 4 nM in the data set with HeLa S-3 cells (Homo sapiens, HeLa S3, 48 h, HeLa S-3 cells, 2 days of treatment, sulforhodamine B, read-out: HeLa Cells GI50) and 1 nM with MCF-7 cells (Homo sapiens, MCF7, 96 h, MCF-7 cells, 4 days of treatment, crystal violet, read-out: MCF-7 Cells GI50).

As for “di(12′-vinblastine) disulfide [Example 60]”, the GI50 in the data set with HeLa S-3 cells (HeLa S-3 cells, 2 days of treatment, sulforhodamine B, read-out: HeLa Cells GI50) is 10 nM; in the data set with MCF-7 cells (MCF-7 cells, 4 days of treatment, crystal violet, read-out: MCF-7 Cells GI50) it was 20 nM.
